According to patent publication US20110040086A1, “Novel Beta-Lactam Antibiotics, Methods for Their Production, and Their Use” (DRITTE PATENTPORTFOLIO BETEILIGUNGSGESELLSCHAFT MB, priority 2007, published 2011):

Assays:
S. epidermidis 125 = assay: agar diffusion test (Test System II, multi-resistant germs); format: cell-based, Staphylococcus epidermidis
Procedure: (§1) The test substances are deposited in stepped quantities (10 μg, 50 μg, 100 μg) onto active ingredient carriers (sensi-discs). For this purpose, the test substances are dissolved in methanol or A. dest. according to their solubility. Each inoculated plate is fitted with 3 test sheets.
(§2) Test System II (Effect Against Multi-Resistant Germs)
(§3) For this purpose, bacteria is cultivated on Müller-Hinton-Agar II plates.
(§4) With 1-1.5 ml physiological saline solution, a bacteria suspension of McFarland 0.5 (corresponds to a bacteria density of 150×10^6 germs) is produced. Then, with a sterile glass rod, a small drop of bacteria suspension is placed on the Müller-Hinton-Agar plate and coated in three layers (vertical, horizontal, and transverse). Thereafter, the sensi-discs with the novel semi-synthetic test substances are placed on top. The fitted plates are incubated for 18-20 hours at 37° C. After incubation, the diameters of the zones of inhibition are read as a measure for the antimicrobial activity of the novel semi-synthetic test substances.

[1] = system: Staphylococcus aureus ATCC 6538; assay: mouse infected with Staphylococcus aureus infection model (survival); format: in vivo, BALB/c mice; settings: 2 × 1.0 mg (50 mg/kg) i.p.
Procedure: Method for Effectiveness In Vivo with the Mouse Infected with Staphylococcus aureus Model
On Day 0, at least 3 BALB/c mice per test substance (Table 8) or controls are pretreated with cyclophosphamide (250 mg/kg) in 250 μl PBS inta peritoneal (i.p.).
On Day 2, the animals again received 100 mg/kg i.p.
On Day 2, a colony of the test germ is transferred from a growing agar plate (Müller-Hinton-Agar, Beckton Dickinson) into a flask with 10 ml CASO broth (CASO-B., Soyabean peptone-Casein peptone broth, SIFIN, 30 g/l) and is cultivated overnight at 37° C. and a shaking frequency of 250 rpm.
On Day 3, the pre-culture (Vk) is diluted 1:50 with CASO-B and further cultivated ca. 2 hours until an extinction in the medium of 0.6 at a wavelength of 550 nm is reached. Then, it is grown 1× with PBS at room temperature and set again to an extinction of 0.6.
At least 3 animals for a test substance or controls are infected with 10 μl/g body weight grown germs of a bacteria suspension with the extinction 0.6 (ca. 10^10-10^12 CFU, Colony forming units) i.p.
After 30 minutes, antibiotic solution is injected into the mice in a volume of 200 μl PBS with 3% DMSO i.p. 6 hours later, the second antibiotic injection is performed at the same concentration. […]

[2] = system: S. aureus North Germany strain; assay: agar diffusion test (Test System II, multi-resistant germs); format: cell-based, Staphylococcus aureus; design: key: r = resistant (no detectable zone of inhibition)
Procedure: as §1, §2, §3, §4

S. aureus 36881 = assay: as above; format: cell-based, Staphylococcus aureus; design: key: r = resistant (no detectable zone of inhibition)
Procedure: as §1, §2, §3, §4

S. aureus 520 = assay: as above; format: cell-based, Staphylococcus aureus; design: key: r = resistant (no detectable zone of inhibition)
Procedure: as §1, §2, §3, §4

[3] = system: Enterococcus faecalis 769; assay: as above; format: cell-based; design: key: r = resistant (no detectable zone of inhibition)
Procedure: as §1, §2, §3, §4

[4] = system: Staphylococcus aureus 315; assay: as above; format: cell-based; design: key: r = resistant (no detectable zone of inhibition)
Procedure: as §1, §2, §3, §4

S. aureus 38418 = assay: as above; format: cell-based, Staphylococcus aureus
Procedure: as §1, §2, §3, §4

S. aureus ATCC 6538 = assay: as above; format: cell-based, Staphylococcus aureus
Procedure: as §1, §2, §3, §4

S. epidermidis 847 = assay: as above; format: cell-based, Staphylococcus epidermidis; design: key: r = resistant (no detectable zone of inhibition)
Procedure: as §1, §2, §3, §4

For “3-chlorine-7-[2-(2-methoxycarbonyl-3,6-dioxocyclohexa-1,4-dienylamino)-2-phenyl-acetylamino]-8-oxo-5-aza-bicyclo[4.2.0]oct-3-ene-4-carboxylic acid [1o]”, the “Diameter of zone of inhibition” value (S. epidermidis 125; Quantity n 0.019) was 14 mm, the “Diameter of zone of inhibition” value (S. epidermidis 125; Quantity n 0.094) was 20 mm and the “Diameter of zone of inhibition” value (S. epidermidis 125; Quantity n 0.19) was 24 mm. The Survival/tested mice n/n [1] was 2/3, the “Diameter of zone of inhibition” value ([2]; Quantity n 0.019) was “r” and the “Diameter of zone of inhibition” value ([2]; Quantity n 0.094) was “r”. For the same substance, the “Diameter of zone of inhibition” value ([2]; Quantity n 0.19) was 12 mm, the “Diameter of zone of inhibition” value (S. aureus 36881; Quantity n 0.019) was “r” and the “Diameter of zone of inhibition” value (S. aureus 36881; Quantity n 0.094) was “r”. For the same substance, the “Diameter of zone of inhibition” value (S. aureus 36881; Quantity n 0.19) was 12 mm, the “Diameter of zone of inhibition” value (S. aureus 520; Quantity n [mol] 0.019) was “r” and the “Diameter of zone of inhibition” value (S. aureus 520; Quantity n [mol] 0.094) was “r”. For the same substance, the “Diameter of zone of inhibition” value (S. aureus 520; Quantity n [mol] 0.19) was “r”, the “Diameter of zone of inhibition” value ([3]; Quantity n 0.019) was “r” and the “Diameter of zone of inhibition” value ([3]; Quantity n 0.094) was “r”. The “Diameter of zone of inhibition” value ([3]; Quantity n 0.19) was “r”, the “Diameter of zone of inhibition” value ([4]; Quantity n 0.019) was “r” and the “Diameter of zone of inhibition” value ([4]; Quantity n 0.094) was “r”. The “Diameter of zone of inhibition” value ([4]; Quantity n 0.19) was 10 mm, the “Diameter of zone of inhibition” value (S. aureus 38418; Quantity n [mol] 0.019) was 14 mm and the “Diameter of zone of inhibition” value (S. aureus 38418; Quantity n [mol] 0.094) was 14 mm. For the same substance, the “Diameter of zone of inhibition” value (S. aureus 38418; Quantity n [mol] 0.19) was 28 mm, the “Diameter of zone of inhibition” value (S. aureus ATCC 6538; Quantity n 0.019) was 22 mm and the “Diameter of zone of inhibition” value (S. aureus ATCC 6538; Quantity n 0.094) was 28 mm. For the same substance, the “Diameter of zone of inhibition” value (S. aureus ATCC 6538; Quantity n 0.19) was 30 mm, the “Diameter of zone of inhibition” value (S. epidermidis 847; Quantity n [mol] 0.019) was “r” and the “Diameter of zone of inhibition” value (S. epidermidis 847; Quantity n [mol] 0.094) was 14 mm. For the same substance, the “Diameter of zone of inhibition” value (S. epidermidis 847; Quantity n [mol] 0.19) was 18 mm.
